Assays:
[1] = molecular target: T1, InsP3Kinase-A (Homo sapiens, UniProt P23677); test: coupled PK/LDH assay with Lineweaver-Burk; thermal shift +[…] °C on wt; assay type: biochemical; design: gene ITPKA; full-length, tag-less
[2] = molecular target: T2, InsP3Kinase-A (Homo sapiens, UniProt P23677, K264Q); test: activity of purified mutant with and without BIP-[…] to […]); assay type: biochemical
T2 construct: gene ITPKA; full-length

[3] = molecular target: T1, InsP3Kinase-A; test: biochemical; design: gene ITPKA; full-length GST-InsP3Kinase-A; conditions: ADP-Glo, 5 uM compound, normalized to positive control
Description: For the inhibitor screening, the compounds were diluted in dimethylsulfoxide (DMSO, Sigma), and a final compound concentration of 5 µM was applied to each well. Each measurement was performed in triplicates. As controls, a positive control (enzyme solution with InsP3Kinase and without compounds, but with DMSO), a negative control (enzyme buffer without InsP3Kinase), and an inhibitor control (quercetin and BIP-4) were applied. In each well, there was a final buffer concentration of 20 mM HEPES pH 7.5, 5 mM MgCl2, 30 mM KCl, 1 mM DTT, 0.5 mM ATP, and an enzyme concentration between 20 nM and 55 nM was applied. […] Then, 10 µl of ADP-Glo reagent was added (depleting remaining ATP and stopping InsP3Kinase enzymatic reaction) and incubated for 20 min at room temperature (RT). […] For luminescent measurement, a TECAN infinite 200 plate reader was used with an integration time of 1000 ms at a temperature of 30°C. For this screen, all measurements were performed in triplicates, three-times using the ADP Glo assay.

[4] = molecular target: T1, InsP3Kinase-A; test: biochemical; design: gene ITPKA; full-length GST-InsP3Kinase-A; conditions: ADP-Glo, 5 uM compound, normalized to positive control; remark: listed apart in the source
Description: For the inhibitor screening, the compounds were diluted in dimethylsulfoxide (DMSO, Sigma), and a final compound concentration of 5 µM was applied to each well. Each measurement was performed in triplicates. […] In each well, there was a final buffer concentration of 20 mM HEPES pH 7.5, 5 mM MgCl2, 30 mM KCl, 1 mM DTT, 0.5 mM ATP, and an enzyme concentration between 20 nM and 55 nM was applied. […] Then, 10 µl of ADP-Glo reagent was added (depleting remaining ATP and stopping InsP3Kinase enzymatic reaction) and incubated for 20 min at room temperature (RT). Next, 10 µl kinase detection reagent (converting remaining ADP to ATP and containing luciferase, which uses ATP as substrate) was added, and incubation was continued for 15 min at RT. For luminescent measurement, a TECAN infinite 200 plate reader was used with an integration time of 1000 ms at a temperature of 30°C. For this screen, all measurements were performed in triplicates, three-times using the ADP Glo assay.

T1 sequence (P23677 whole entry): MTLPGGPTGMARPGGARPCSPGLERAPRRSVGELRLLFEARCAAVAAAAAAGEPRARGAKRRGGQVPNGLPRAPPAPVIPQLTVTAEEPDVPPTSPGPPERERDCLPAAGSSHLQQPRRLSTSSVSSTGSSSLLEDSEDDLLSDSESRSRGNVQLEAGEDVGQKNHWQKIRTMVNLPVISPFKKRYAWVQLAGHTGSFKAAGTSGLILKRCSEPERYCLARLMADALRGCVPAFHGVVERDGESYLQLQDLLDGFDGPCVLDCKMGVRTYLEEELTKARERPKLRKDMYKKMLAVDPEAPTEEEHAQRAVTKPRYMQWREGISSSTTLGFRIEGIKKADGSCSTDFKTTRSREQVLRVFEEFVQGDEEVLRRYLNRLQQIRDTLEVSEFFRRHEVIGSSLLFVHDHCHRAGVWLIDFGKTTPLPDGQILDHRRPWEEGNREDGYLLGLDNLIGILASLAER
T2 sequence (P23677 whole entry K264Q): as the sequence (P23677 whole entry) above, with K264Q counted along it

Compound: Cc1nn(-c2ccc([N+](=O)[O-])cc2)c(C)c1N1C(=O)c2cc([N+](=O)[O-])cc3cc([N+](=O)[O-])cc(c23)C1=O [BIP-4, 2-[3,5-dimethyl-1-(4-nitrophenyl)-1H-pyrazol-4-yl]-5,8-dinitro-1H-benzo[de]isoquinoline-1,3(2H)-dione]
- Ki [1]: 437 nM
- Enzyme activity + BIP4 in % [2]: 18.797 % enzyme activity with BIP-4

Compound: Cc1ccc(N2C(=O)c3cc([N+](=O)[O-])cc4cc([N+](=O)[O-])cc(c34)C2=O)c(C)c1 [compound 19, 19]
- inhibition at 5 µM [3]: 36.2%

Compound: CCOc1ccc(N2C(=O)c3cc([N+](=O)[O-])cc4cc([N+](=O)[O-])cc(c34)C2=O)cc1 [compound 27, 27]
- inhibition at 5 µM [3]: 31.4%

Compound: O=C1c2cc([N+](=O)[O-])cc3cc([N+](=O)[O-])cc(c23)C(=O)N1c1ccccc1Cl [compound 28, 28]
- inhibition at 5 µM [3]: 19.7%

Compound: CNS(=O)(=O)c1ccc(N2C(=O)c3cc([N+](=O)[O-])cc4cc([N+](=O)[O-])cc(c34)C2=O)cc1 [compound 31, 31]
- inhibition at 5 µM [3]: 33.4%

Compound: CCN(CC)S(=O)(=O)c1ccc(N2C(=O)c3cc([N+](=O)[O-])cc4cc([N+](=O)[O-])cc(c34)C2=O)cc1 [compound 33, 33]
- inhibition at 5 µM [3]: 41.6%

Compound: O=C1c2cc([N+](=O)[O-])cc3cc([N+](=O)[O-])cc(c23)C(=O)N1c1ccc(Br)cn1 [compound 78, 78]
- inhibition at 5 µM [4]: 1.6%

Source: PMC8292763, “Mechanism of BIP-4 mediated inhibition of InsP3Kinase-A” (Bioscience Reports, 2021)
